Test results reported in patent US11464782B2, “Method of treating pain or interstitial cystitis using indole compound” (Japan Tobacco Inc., priority 2018, dated 2022).

How the values were obtained:
[1] = test system: NGF-induced mechanical hyperalgesia; experiment: NGF-induced mechanical hyperalgesia in rats (pressure analgesy-meter, paw withdrawal threshold); type: in vivo, rat
Description: In order to induce a pain-related behavior (withdrawal behavior), NGF was injected into the plantar area of the left hind paw of rats and the thermal latencies/mechanical thresholds were measured. The effects of Compound A on these withdrawal behaviors were investigated. At 2 days before the injection of NGF, the thermal latencies or mechanical thresholds were measured for acclimation to the experimental environment. On the day before injection of NGF, body weights and values of the thermal latencies or mechanical thresholds were obtained. 50 μL of NGF solution was injected intraplantar to left hind paw of rats. 0.5 μg/site of NGF was selected in the evaluation of thermal stimuli and 1 μg/site was selected in that of mechanical stimuli. A monohydrochloride of Compound A (1, 3, or 10 mg/kg) was administered orally at the same time as the NGF injection. The latencies to thermal stimuli were measured at 3 and 6 hours after injection of NGF solution, and the thresholds to mechanical stimuli were measured at 1, 3 and 6 hours after injection of NGF solution. The evaluation was performed as a blind test of each group. The mechanical threshold was measured using a pressure analgesy-meter. A mechanical stimulus (pressure) increased at a constant rate was added to the hind paw, and the pressure under load until animals withdrew its hind paw or vocalization was recorded as the mechanical threshold (mmHg).

[2] = test system: subjects with active rheumatoid arthritis; experiment: Pain evaluation in rheumatoid arthritis human clinical trial (pain NRS); type: in vivo
Description: (§1) Compound A was evaluated in a multicenter, randomized, double-blind, placebo-controlled, parallel-group study in subjects with active rheumatoid arthritis. Subjects were randomized to receive orally placebo or an amount of monohydrochloride Compound A sufficient to provide 50 mg, 100 mg, 150 mg, or 200 mg of free form, once daily for 12 weeks.
Pain was evaluated using a Numerical Rating Scale (NRS) by subjects. The pain NRS represents the severity of their arthritis pain during the past 3 days using an 11-point scale from 0 (no pain) to 10 (maximum pain). An evaluation was made of how much NRS decreased from baseline NRS after drug administration.
Data from EOT (end of treatment), at 2 weeks, and at 12 weeks was obtained. EOT is a measurement point generally used in clinical studies. In a 12-week study, it refers to all analysis at the 12-week time point. However, since some subjects will have discontinued the study midway, the data at the time of discontinuation is treated as the EOT for these subjects (for example, data for week 8 is used as EOT for subjects who discontinued in week 8). 2-week (subjects who completed 2 weeks in full) and 12-week (subjects who completed 12 weeks in full) data are also presented.
Change in pain NRS was evaluated in two subgroups of patients, those with higher baseline pain levels (median baseline pain NRS≥8.0) and those with lower baseline pain levels (median baseline pain NRS<8.0). […] Although the magnitude of decrease in pain NRS was different between lower and higher baseline pain NRS subgroups, both subgroups ultimately achieved a pain NRS score of approximately 4.

[3] = test system: rats with CYP-induced cystitis; experiment: Rat CYP-induced cystitis model, frequent urination by cystometry; type: in vivo; details: 2 or 6 mg/mL solutions at 5 mL/kg oral twice a day Day 1-2, cystometry Day 3
Description: The effect of Compound A on frequent urination, calculated by single voided volume and intermicturition interval, was evaluated using a rat CYP-induced cystitis model. The evaluation was performed according to G M. Herrera et al., PLoS ONE 5 (8): e12298. Female CD (SD) rats (Charles River Laboratories Japan, Inc.) were used as the experimental animals. A monohydrochloride of Compound A was dissolved in 0.5% MC to prepare 2 mg/mL and 6 mg/mL solutions of Compound A.
30 mg/mL of CYP (Sigma) dissolved in saline was intraperitoneally administered in the vehicle group and Compound A group and saline was intraperitoneally administered in the sham group at 5 mL/kg (Day 1).
0.5% (w/v) MC was orally administered once a day for 2 days (Day 1-2) in the sham group and vehicle group at 5 mL/kg, and 2 mg/mL or 6 mg/mL solutions of Compound A was orally administered twice a day (Day 1-2) in the Compound A administration group at 5 mL/kg.
Intravesical pressure and voided volume were measured by cystometry on Day 3, and single voided volumes and intermicturition intervals were calculated. Mean values were calculated for each group from individual single voided volumes and intermicturition intervals, and the results are shown in FIG. 12A and FIG. 12B, respectively.

[4] = test system: NGF-induced thermal hyperalgesia; experiment: NGF-induced thermal hyperalgesia in rats (plantar test, paw withdrawal latency); type: in vivo, rat
Description: In order to induce a pain-related behavior (withdrawal behavior), NGF was injected into the plantar area of the left hind paw of rats and the thermal latencies/mechanical thresholds were measured. The effects of Compound A on these withdrawal behaviors were investigated. At 2 days before the injection of NGF, the thermal latencies or mechanical thresholds were measured for acclimation to the experimental environment. On the day before injection of NGF, body weights and values of the thermal latencies or mechanical thresholds were obtained. 50 μL of NGF solution was injected intraplantar to left hind paw of rats. 0.5 μg/site of NGF was selected in the evaluation of thermal stimuli and 1 μg/site was selected in that of mechanical stimuli. A monohydrochloride of Compound A (1, 3, or 10 mg/kg) was administered orally at the same time as the NGF injection. The latencies to thermal stimuli were measured at 3 and 6 hours after injection of NGF solution, and the thresholds to mechanical stimuli were measured at 1, 3 and 6 hours after injection of NGF solution. The evaluation was performed as a blind test of each group. The thermal latency was measured using a plantar test apparatus. An infrared heat stimuli was delivered to the plantar area of the hind paw and the time to withdraw the paw from the heat source was recorded automatically as the thermal latency. The measurement was performed 5 times for both hind paws of each animal, the averages of the last 3 values in each hind paw were accounted as the thermal latencies of each animal. The measurement for acclimation was performed only 3 times.

[5] = test system: subjects with active rheumatoid arthritis; experiment: Adverse events in rheumatoid arthritis human clinical trial; type: in vivo
Description: as §1
The incidence of serious adverse events (SAEs) and severe treatment-emergent adverse events (TEAEs) in the clinical study was low (3.4% and 2.9%, respectively) in subjects who received treatment with one of the doses of Compound A in the clinical study.

[6] = at 6 hours after NGF injection, oral
[7] = compared with the vehicle, 1, 3, 10 mg/kg oral, dose related
[8] = rheumatoid arthritis subjects, 50-200 mg oral once daily
[9] = subjects who received one of the doses (50-200 mg once daily, 12 weeks)

## C[C@@H](C(=O)N(C)c1ccc2cc(-c3n[nH]c4c3CCC(C)(C)C4)[nH]c2c1)N1CCOCC1 [Compound A, N-[2-(6,6-dimethyl-4,5,6,7-tetrahydro-1H-indazol-3-yl)-1H-indol-6-yl]-N-methyl-(2S)-2-(morpholin-4-yl)propanamide]
[1]; [6]
  dose from which significant effects were observed (mechanical threshold): ≥ 3 mg/kg
[1]; [7]
  effect on the decrease in the mechanical thresholds induced by NGF: prevented the decrease in the mechanical thresholds induced by NGF
[2]; both lower (<8.0) and higher (≥8.0) baseline pain NRS subgroups, 50-200 mg oral once daily for 12 weeks
  pain NRS score ultimately achieved: approximately 4
[2]; [8]
  duration of anti-pain effects (long-lasting): 12 weeks
  time to anti-pain effects (rapid): ≤ 2 weeks
[2]; subjects having pain greater than or equal to 8 on the NRS scale
  pain in subjects having severe pain: reduce pain
[2]; subjects with higher baseline pain levels (NRS≥8.0) versus lower (NRS<8.0)
  decrease in pain NRS by baseline pain subgroup: Larger decreases in pain NRS were observed in subjects that began treatment with higher baseline pain levels
[3]
  frequent urination (single voided volume, intermicturition interval): suppressed frequent urination
[4]; [6]
  dose from which significant effects were observed (thermal latency): ≥ 3 mg/kg
[4]; [7]
  effect on the decrease in the thermal latencies induced by NGF: prevented the decrease in the thermal latencies induced by NGF
[5]; doses up to 200 mg over 12 weeks of treatment
  safety and tolerability: safe and tolerated
[5]; [9]
  incidence of serious adverse events (SAEs): 3.4%
  incidence of severe treatment-emergent adverse events (TEAEs): 2.9%
